These results are taken from patent US10479780B2, “Aminopyrazole derivatives” (Chugai Seiyaku Kabushiki Kaisha, priority 2015, dated 2019).

Where two headings read alike, the source gives them in different places.

What all share (type): biochemical
One assay deals with T1, human Yes1 enzyme (Homo sapiens, UniProt P07947).
T1 construct: made in house
The experiment in a line: Yes1 enzyme inhibitory activity (time-resolved fluorometry, biotinylated peptide phosphorylation). The conditions noted are these: read-out: YES_IC50. In outline:
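Inhibition was expressed against a compound-free control to give IC50, using TR-FRET read-out (Eu-cryptate anti-pTyr antibody, streptavidin-XL665).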

The next assay concerns the target T2, human Lck enzyme (Homo sapiens, UniProt P06239).
T2 construct: purchased Carna Biosciences, Inc. 08-170
The experiment in a line: Lck enzyme inhibitory activity (time-resolved fluorometry, biotinylated peptide phosphorylation). The conditions noted are these: read-out: LCK_IC50. In outline:
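Readout pairs a europium cryptate-labelled anti-phosphotyrosine antibody with XL665-streptavidin, measured by time-resolved fluorescence. IC50 derived from percent inhibition against untreated controls.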

In a further assay the target is T3, human Src enzyme (Homo sapiens, UniProt P12931).
T3 construct: purchased Carna Biosciences, Inc. 08-173
The assay is described as follows: Src enzyme inhibitory activity (time-resolved fluorometry, biotinylated peptide phosphorylation). Conditions: read-out: SRC_IC50. A digest of the protocol:
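Compounds were tested for blocking tyrosine phosphorylation of a biotinylated peptide substrate by recombinant human Src. Phosphorylated product was quantified by time-resolved fluorometry using europium cryptate and XL665 conjugates, and IC50 was calculated against the compound-free control.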

Where [1] appears, read: biotinylated peptide phosphorylation.

T1 sequence (P07947 whole entry): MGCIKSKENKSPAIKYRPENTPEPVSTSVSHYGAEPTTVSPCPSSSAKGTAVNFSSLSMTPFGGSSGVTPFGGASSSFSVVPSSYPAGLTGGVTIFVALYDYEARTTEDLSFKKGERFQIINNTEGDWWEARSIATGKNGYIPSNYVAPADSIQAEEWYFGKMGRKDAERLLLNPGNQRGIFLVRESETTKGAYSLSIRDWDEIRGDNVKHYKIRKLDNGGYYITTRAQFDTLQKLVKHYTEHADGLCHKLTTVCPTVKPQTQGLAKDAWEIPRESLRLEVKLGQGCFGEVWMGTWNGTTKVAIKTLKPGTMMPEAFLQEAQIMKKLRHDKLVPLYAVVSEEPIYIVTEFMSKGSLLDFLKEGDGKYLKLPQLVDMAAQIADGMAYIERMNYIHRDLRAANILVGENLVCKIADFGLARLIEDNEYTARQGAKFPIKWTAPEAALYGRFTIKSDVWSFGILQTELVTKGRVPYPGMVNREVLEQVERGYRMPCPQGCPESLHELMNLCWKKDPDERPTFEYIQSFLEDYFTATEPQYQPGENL
T3 sequence (P12931 whole entry): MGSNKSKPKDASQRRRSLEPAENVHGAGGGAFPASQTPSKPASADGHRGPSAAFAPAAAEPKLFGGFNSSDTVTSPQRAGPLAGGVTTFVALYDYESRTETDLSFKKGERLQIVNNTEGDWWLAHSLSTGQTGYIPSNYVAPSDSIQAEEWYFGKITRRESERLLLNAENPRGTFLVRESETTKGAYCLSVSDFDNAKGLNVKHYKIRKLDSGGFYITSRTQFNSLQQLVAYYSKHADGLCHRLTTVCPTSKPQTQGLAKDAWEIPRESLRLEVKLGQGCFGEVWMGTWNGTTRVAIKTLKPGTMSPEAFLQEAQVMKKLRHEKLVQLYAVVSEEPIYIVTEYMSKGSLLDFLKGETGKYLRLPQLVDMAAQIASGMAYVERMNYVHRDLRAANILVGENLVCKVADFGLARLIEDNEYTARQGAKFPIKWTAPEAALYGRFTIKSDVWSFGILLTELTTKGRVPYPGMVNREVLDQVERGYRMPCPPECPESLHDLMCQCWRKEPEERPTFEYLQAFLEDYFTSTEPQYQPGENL
T2 sequence (P06239 whole entry): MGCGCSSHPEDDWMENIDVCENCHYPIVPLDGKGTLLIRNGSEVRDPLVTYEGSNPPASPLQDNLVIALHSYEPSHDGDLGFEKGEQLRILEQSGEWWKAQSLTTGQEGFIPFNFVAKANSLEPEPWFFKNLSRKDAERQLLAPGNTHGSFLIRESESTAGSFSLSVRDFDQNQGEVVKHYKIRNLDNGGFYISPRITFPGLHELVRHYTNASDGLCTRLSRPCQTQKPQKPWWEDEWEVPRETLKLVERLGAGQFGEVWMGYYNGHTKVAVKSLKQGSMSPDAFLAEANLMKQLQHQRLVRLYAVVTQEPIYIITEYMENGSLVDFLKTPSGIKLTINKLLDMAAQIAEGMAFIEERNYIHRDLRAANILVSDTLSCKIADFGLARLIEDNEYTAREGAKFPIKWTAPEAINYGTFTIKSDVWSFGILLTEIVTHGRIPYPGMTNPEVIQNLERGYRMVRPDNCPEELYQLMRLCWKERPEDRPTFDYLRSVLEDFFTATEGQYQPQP

`Cc1cc2cc(C(=O)c3cnn(-c4ccc(Oc5ccccc5F)cc4C)c3N)[nH]c2cc1NS(=O)(=O)c1cncc(Cl)c1` [Example 5-1-540, N-[2-[5-amino-1-[4-(2-fluorophenoxy)-2-methylphenyl]pyrazole-4-carbonyl]-5-methyl-1H-indol-6-yl]-5-chloropyridine-3-sulfonamide]: the IC50 on human Yes1 enzyme (setting [1]) worked out at 0.0035 µM; at human Lck enzyme (setting [1]), 0.096 µM; at human Src enzyme (setting [1]) it was 0.35 µM.
For `Cc1cc(-n2ncc(C(=O)c3cc4cc(N5CCOCC5)c(N5CCOCC5)cc4[nH]3)c2N)ccc1Oc1ccccc1F` [Example 5-1-159, [5-amino-1-[4-(2-fluorophenoxy)-3-methylphenyl]pyrazol-4-yl]-(5,6-dimorpholin-4-yl-1H-indol-2-yl)methanone], the IC50 came to 0.0014 µM on human Yes1 enzyme, 0.039 µM at human Lck enzyme and 0.096 µM at human Src enzyme.
For the molecule `Cc1cc(Oc2ccccc2F)ccc1-n1ncc(C(=O)c2cc3cc(C4CC4)c(NS(=O)(=O)C4CCOCC4)cc3[nH]2)c1N` [Example 5-1-397, N-[2-[5-amino-1-[4-(2-fluorophenoxy)-2-methylphenyl]pyrazole-4-carbonyl]-5-cyclopropyl-1H-indol-6-yl]oxane-4-sulfonamide], the IC50 on human Yes1 enzyme stood at 0.0018 µM; on human Lck enzyme, 0.031 µM; on human Src enzyme, 0.09 µM.
In the case of `Cc1cc(-n2ncc(C(=O)c3cc4cc(C)c(N5C(=O)NC6(CC6)C5=O)cc4[nH]3)c2N)ccc1Oc1ccccc1F` [Example 5-1-473, 6-[2-[5-amino-1-[4-(2-fluorophenoxy)-3-methylphenyl]pyrazole-4-carbonyl]-5-methyl-1H-indol-6-yl]-4,6-diazaspiro[2.4]heptane-5,7-dione], the figures for the IC50 at human Yes1 enzyme (setting [1]), on human Lck enzyme (setting [1]) and on human Src enzyme (setting [1]) were 0.017 µM, 0.24 µM and 3.5 µM, respectively.
On to `Cc1cc(Oc2ccccc2F)ccc1-n1ncc(C(=O)c2cc3cc(OC4CCN(C(C)C)CC4)c(N4C(=O)NC(C)(C)C4=O)cc3[nH]2)c1N` [Example 5-1-193, 3-[2-[5-amino-1-[4-(2-fluorophenoxy)-2-methylphenyl]pyrazole-4-carbonyl]-5-(1-propan-2-ylpiperidin-4-yl)oxy-1H-indol-6-yl]-6,5-dimethylimidazolidine-2,4-dione], for which the IC50 stood at 0.00032 µM at human Yes1 enzyme, 0.0013 µM on human Lck enzyme and 0.0023 µM at human Src enzyme.
In the case of `Cc1cc(Oc2ccc(F)cc2)ncc1-n1ncc(C(=O)c2cc3cc(Cl)c(NS(C)(=O)=O)cc3[nH]2)c1N` [Example 4-2-092, N-[2-[5-amino-1-[6-(4-fluorophenoxy)-4-methylpyridin-3-yl]pyrazole-4-carbonyl]-5-chloro-1H-indol-6-yl]methanesulfonamide], the IC50 on human Yes1 enzyme (setting [1]) was 0.019 µM; at human Lck enzyme (setting [1]), 0.078 µM; at human Src enzyme (setting [1]), 0.27 µM.
For the molecule `Cc1cccc(S(=O)(=O)Nc2cc3[nH]c(C(=O)c4cnn(-c5cnc(Oc6ccccc6F)cc5C)c4N)cc3cc2F)n1` [Example 5-1-534, N-[2-[5-amino-1-[6-(2-fluorophenoxy)-4-methylpyridin-3-yl]pyrazole-4-carbonyl]-5-fluoro-1H-indol-6-yl]-6-methylpyridine-2-sulfonamide], the IC50 at human Yes1 enzyme (setting [1]) was determined as 0.0051 µM; on human Lck enzyme (setting [1]), 0.17 µM; on human Src enzyme (setting [1]), 0.64 µM.
For the molecule `Cc1cc(Oc2c(F)cccc2F)ncc1-n1ncc(C(=O)c2cc3cc(F)c(N4C(=O)NC5(CCCC5)C4=O)cc3[nH]2)c1N` [Example 5-1-344, 3-[2-[5-amino-1-[6-(2,6-difluorophenoxy)-4-methylpyridin-3-yl]pyrazole-4-carbonyl]-5-fluoro-1H-indol-6-yl]-1,3-diazaspiro[4.4]nonane-2,4-dione], the IC50 turned out to be 0.0047 µM on human Yes1 enzyme, 0.013 µM at human Lck enzyme and 0.15 µM on human Src enzyme.
Regarding `Cc1cc(Oc2ccccc2F)ccc1-n1ncc(C(=O)c2cc3cc(OCCN4CCOCC4)c(N4CCCS4(=O)=O)cc3[nH]2)c1N` [Example 4-25-012, [5-amino-1-[4-(2-fluorophenoxy)-2-methylphenyl]pyrazol-4-yl]-[6-(1,1-dioxo-1,2-thiazolidin-2-yl)-5-(2-morpholin-4-ylethoxy)-1H-indol-2-yl]methanone], the IC50 at human Yes1 enzyme (setting [1]) came to 0.00035 µM; at human Lck enzyme (setting [1]), 0.0021 µM; at human Src enzyme (setting [1]), 0.003 µM.
With `Cc1cc(-n2ncc(C(=O)c3cc4cc(OC5CCN(C(C)C)CC5)c(N5CCN(S(C)(=O)=O)CC5)cc4[nH]3)c2N)ccc1Oc1ccccc1F` [Example 5-1-176, [5-amino-1-[4-(2-fluorophenoxy)-3-methylphenyl]pyrazol-4-yl]-[6-(4-methylsulfonylpiperazin-1-yl)-5-(1-propan-2-ylpiperidin-4-yl)oxy-1H-indol-2-yl]methanone], the IC50 came to 0.001 µM at human Yes1 enzyme, 0.011 µM at human Lck enzyme and 0.079 µM at human Src enzyme.
As to `Cc1cc2cc(C(=O)c3cnn(-c4cnc(Oc5c(F)cccc5F)cc4C)c3N)[nH]c2cc1NS(=O)(=O)C1CCOC1` (stereo not drawn) [Example 5-1-281, N-[2-[5-amino-1-[6-(2,6-difluorophenoxy)-4-methylpyridin-3-yl]pyrazole-4-carbonyl]-5-methyl-1H-indol-6-yl]oxolane-3-sulfonamide], the IC50 at human Yes1 enzyme came out at 0.0019 µM; on human Lck enzyme, 0.027 µM; at human Src enzyme it was 0.14 µM.
In the case of `Cc1cc(-n2ncc(C(=O)c3cc4cc(OC5CCN(C6CCC6)CC5)c(N)cc4[nH]3)c2N)ccc1Oc1ccccc1F` [Example 5-1-232, [6-amino-5-(1-cyclobutylpiperidin-4-yl)oxy-1H-indol-2-yl]-[5-amino-1-[4-(2-fluorophenoxy)-3-methylphenyl]pyrazol-4-yl]methanone], the IC50 at human Yes1 enzyme amounted to 0.0014 µM; on human Lck enzyme, 0.03 µM; at human Src enzyme it was 0.23 µM.
Regarding `Cc1cc(Oc2cccc(F)c2F)cc(F)c1-n1ncc(C(=O)c2cc3cc(F)c(N)cc3[nH]2)c1N` [Example 4-3-001, {5-amino-1-[4-(2,3-difluorophenoxy)-2-fluoro-6-methylphenyl]pyrazol-4-yl}-(6-amino-5-fluoro-1H-indol-2-yl)methanone], the IC50 at human Yes1 enzyme (setting [1]) turned out to be 0.0043 µM; at human Lck enzyme (setting [1]), 0.024 µM; at human Src enzyme (setting [1]), 0.092 µM.
As to `Cc1cc(Oc2c(F)cccc2F)ncc1-n1ncc(C(=O)c2cc3cc(OC(F)F)c(NS(=O)(=O)C4CCOCC4)cc3[nH]2)c1N` [Example 5-1-380, N-[2-[5-amino-1-[6-(2,6-difluorophenoxy)-4-methylpyridin-3-yl]pyrazole-4-carbonyl]-5-(difluoromethoxy)-1H-indol-6-yl]oxane-4-sulfonamide], the values for the IC50 on human Yes1 enzyme, on human Lck enzyme and on human Src enzyme were 0.0063 µM, 0.11 µM and 0.095 µM, respectively.
Regarding `Cc1cc2cc(C(=O)c3cnn(-c4cnc(Oc5ccccc5F)cc4C)c3N)[nH]c2cc1NS(=O)(=O)c1cccc(C(F)(F)F)c1` [Example 5-1-463, N-[2-[5-amino-1-[6-(2-fluorophenoxy)-4-methylpyridin-3-yl]pyrazole-4-carbonyl]-5-methyl-1H-indol-6-yl]-3-(trifluoromethyl) benzenesulfonamide], the IC50 at human Yes1 enzyme (setting [1]) came to 0.012 µM; at human Lck enzyme (setting [1]), 0.42 µM; on human Src enzyme (setting [1]), 1.9 µM.
Turning to `CC(C)N1CCC(c2cc3[nH]c(C(=O)c4cnn(-c5ccc(Oc6ccccc6F)cc5)c4N)cc3cc2F)CC1` [Example 5-1-007, [5-amino-1-[4-(2-fluorophenoxy)phenyl]pyrazol-4-yl]-[5-fluoro-6-(1-propan-2-ylpiperidin-4-yl)-1H-indol-2-yl]methanone], the results for the IC50 on human Yes1 enzyme, at human Lck enzyme and at human Src enzyme were 0.0011 µM, 0.0022 µM and 0.011 µM, respectively.
Regarding `Cc1cc(Oc2ccccc2F)cc(F)c1-n1ncc(C(=O)c2cc3cc(NS(C)(=O)=O)c(F)cc3[nH]2)c1N` [Example 4-2-099, N-[2-[5-amino-1-[2-fluoro-4-(2-fluorophenoxy)-6-methylphenyl]pyrazole-4-carbonyl]-6-fluoro-1H-indol-5-yl]methanesulfonamide], the figures for the IC50 at human Yes1 enzyme (setting [1]), at human Lck enzyme (setting [1]) and on human Src enzyme (setting [1]) were 0.00061 µM, 0.0028 µM and 0.015 µM, respectively.
Regarding `Cc1cc(Oc2c(F)cccc2F)ncc1-n1ncc(C(=O)c2cc3cc(OCC(F)F)c(NS(=O)(=O)C4CCOCC4)cc3[nH]2)c1N` [Example 5-1-319, N-[2-[5-amino-1-[6-(2,6-difluorophenoxy)-4-methylpyridin-3-yl]pyrazole-4-carbonyl]-5-(2,2-difluoroethoxy)-1H-indol-6-yl]oxane-4-sulfonamide], the IC50 on human Yes1 enzyme came to 0.0028 µM; at human Lck enzyme, 0.018 µM; at human Src enzyme, 0.088 µM.
Turning to `Cc1cc2cc(C(=O)c3cnn(-c4ccc(Oc5ccccc5F)cc4C)c3N)[nH]c2cc1N1CCCS1(=O)=O` [Example 4-2-112, [5-amino-1-[4-(2-fluorophenoxy)-2-methylphenyl]pyrazol-4-yl]-[6-(1,1-dioxo-1,2-thiazolidin-2-yl)-5-methyl-1H-indol-2-yl]methanone], the IC50 at human Yes1 enzyme (setting [1]) was found to be 0.00093 µM; on human Lck enzyme (setting [1]), 0.0083 µM; on human Src enzyme (setting [1]), 0.023 µM.
For `Cc1cc(Oc2ccccc2F)cc(C)c1-n1ncc(C(=O)c2cc3cc(F)c(NS(=O)(=O)C4CC4)cc3[nH]2)c1N` [Example 4-2-042, N-[2-[5-amino-1-[4-(2-fluorophenoxy)-2,6-dimethylphenyl]pyrazole-4-carbonyl]-5-fluoro-1H-indol-6-yl]cyclopropanesulfonamide], the IC50 at human Yes1 enzyme (setting [1]) was found to be 0.032 µM; on human Lck enzyme (setting [1]), 0.37 µM; at human Src enzyme (setting [1]) it was 0.84 µM.
